Measured values from US20170020900A1, “METHODS FOR SCREENING ANTIMICROBIAL AND ANTIVIRAL COMPOUNDS AND USES THEREOF” (The General Hospital Corporation, priority 2006, published 2017).
Values after ≈ are worked out from the molar mass of the structure shown. Residues, ends and D or L forms follow the SMILES beside them. *: point of attachment. CH2Cl = ClC*

Tests used:
C. albicans strain MLR62 = experiment: C. elegans-Candida killing assay, compound library screen in 96-well plates; type: in vivo, Candida albicans; settings: for Killing: glp-4, sek-1 nematodes, day 6, compound 33.33 μg/ml, 13.33 μg/ml, or 6.67 mM depending on library
Procedure: For testing the efficacy of chemical compounds, C. albicans strain MLR62 was inoculated into 2 ml of YPD and grown at 30° C. for 24 hours; 10 μl of the culture was spread on 35-mm tissue-culture plates (Falcon) containing brain heart infusion (BHI) agar (Difco) with kanamycin (45 μg/ml), ampicillin (100 μg/ml), and streptomycin (100 μg/ml). The plates were incubated at 30° C. for 24 hours. C. elegans animals at the L4 developmental stage (grown as detailed above under C. elegans liquid medium killing assays) were transferred from a lawn of E. coli HB101 onto C. albicans lawns on BHI medium, incubated at 25° C. for 30 minutes, and then pipetted in 50 μl into 96-well plate wells that contained 100 μl liquid media (79% of M9 buffer, 20% BHI media, 2 μM cholesterol and 90 μg/ml kanamycin). C. elegans glp-4; sek-1 nematodes were pipetted into 96-well plates that contained compounds from chemical libraries. Library 1361 was assembled by Biomol and contains well-characterized compounds that affect many different aspects of cellular pathways. The NINDS custom collection (plates 501-503) was put together by MicroSource Discovery Systems for the National Institute of Neurological Disorders and Stroke (NINDS), the Huntington's Disease Society of America (HDSA), the Amyotrophic Lateral Sclerosis (ALS) Association, and the Hereditary Disease Foundation (HDF). It mostly contains FDA approved drugs. The Prestwick library (plate 1569) contains compounds that are known to be safe and bioactive in humans. The majority of the compounds are marketed drugs.
On day 6, nematodes were evaluated for survival, filament formation and optical density. The plates were incubated at 25° C. and examined on day 6 for survival with a Nikon SMZ645 dissecting microscope. In addition, images were obtained using a CellWorx High Content Cell Analysis System (Applied Precision) at 4× magnification. Dead worms were counted but not removed. […] Each compound was also scored by the number of dead worms in the well that developed hyphea. […] Compounds were categorized as having a minimal effect on filament formation if 25-75% of the dead worms developed hyphea.
Approximately 25 nematodes were used to analyze each chemical compound tested. Two controls were used in all plates. […] In this pilot screen, we considered a compound as a “hit” when survival in the compound well with was 50% and above of the median survival of the control wells. Depending on the compound library, the final concentration of the compounds was 33.33 μg/ml, 13.33 μg/ml, or […].

[1] = tested on: E. faecalis strain MMH594; experiment: MIC, 2-fold broth microdilution in BHI media (NCCLS); type: cell-based, Enterococcus faecalis; settings: Enterococcus faecalis, E30 value is at its aqueous solubility limit, read-out: MIC
Procedure: Worm survival was scored manually after 6 days of incubation. […] MICs were determined against E. faecalis strain MMH594 using 2-fold dilution in BHI media according to the broth microdilution protocol of the NCCLS (CLSI) (National Committee for Clinical Laboratory Standards, Approved Standard M7-A5; Methods for Dilution Antimicrobial Susceptibility Tests for Bacteria that Grow Aerobically, Villanova, Pa.: NCCLS (2000)).

E. faecalis [2] = experiment: Bacterial colonization of the nematode intestine (CFU per worm); type: in vivo, Enterococcus faecalis; settings: 100% = 3.28 × 10^4 CFU/worm
Procedure: Infected worms were washed three times with M9 buffer containing 1 mM sodium azide. Approximately 10 worms were transferred to a 2 ml microcentrifuge tube and the volume was brought to 250 μl. Fifty μl of buffer was removed and plated to determine the number of external CFU.

E. faecalis [3] = experiment: Curing of a nematode E. faecalis infection on solid medium by antibiotic treatment; type: in vivo, Enterococcus faecalis; settings: worms transferred to E. faecium lawns
Procedure: FIGS. 11A-11D show the curing of a nematode E. faecalis infection on solid medium by antibiotic treatment. FIG. 11A is a graph depicting the Kaplan-Meier survival curves of wild-type N2 C. elegans feeding continuously on lawns of E. faecalis (Efs) V583 (▴) or E. faecium (Efm) DO (▾). Nematodes feeding for 24 hours on E. faecalis and subsequently transferred to lawns of E. faecium (▪) die with an LT50 of 14.9 days. Error bars equal SEM. […] FIG. 11C is a graph showing the antibiotic concentrations required to promote rescue of E. faecalis infected N2 nematodes. […] Error bars are standard deviations. […] Error bars equal SEM.
N2 or glp-4(bn2ts); sek-1(km4) worms were synchronized by isolating eggs from gravid adults, hatching the eggs overnight in M9 buffer, and plating L1-stage worms onto lawns of E. coli on NGM agar media. Worms were grown to sterile, young adults by incubation at 25° C. for 48 to 52 hours, washed off the plates with M9 buffer, resuspended and washed in M9 buffer, deposited onto lawns of E. faecalis grown on BHI agar plates containing kanamycin at 80 μg/ml to inhibit E. coli growth, incubated for 8 to 12 hours at 25° C., and resuspended in M9 buffer. For assays using agar media, approximately 35 infected worms were washed and then deposited onto 35 mm plates containing the appropriate antibiotics. Plates were incubated at 25° C. and scored for worm survival at regular intervals. Worms were considered dead if they were unresponsive to touch with a platinum wire pick. For the initial assays using liquid media, approximately 80 infected worms were transferred to wells of a 6 well plate containing 2 ml media consisting of 10% BHI 80 μg/ml kanamycin, 90% M9 buffer, and the appropriate antibiotics. The plates were incubated without agitation at 25° C. and 80-85% relative humidity.

| Compound | Killing (C. albicans strain MLR62) | further results |
| --- | --- | --- |
| CCCCC(C)(O)C/C=C/[C@H]1[C@H](O)CC(=O)[C@@H]1CCCCCCC(=O)O (mixture of isomers) [Misoprostol, free acid] | 0.464 | – |
| CCCCCCCCCCCCCCC[C@H](O)[C@@H](N)CO (racemic) [DL-Dihydrosphingosine] | 0.485 | – |
| CCCCC/C=C\C/C=C\C/C=C\C=C\[C@H](CCCC(=O)O)OO [5 (S) HPETE] | 0.261 | – |
| CCCCCCCCCCC/C=C\C(C)(C)/C=C\CCCC(=O)O [7,7-Dimethyleicosadienoic acid] | 0.304 | – |
| CCCCC[C@@H](/C=C/C=C\C/C=C\C/C=C\CCCC(=O)O)OO [15 (S) HPETE] | 0.412 | – |
| N#CC(=Cc1ccc2[nH]ccc2c1)C(N)=C(C#N)C#N [AG-370] | 0.111 | – |
| N#C/C(=C/c1ccc(O)c(O)c1)C(=O)NCc1ccccc1 [AG-490] | 0.462 | – |
| COc1cc2ncnc(Nc3cccc(Cl)c3)c2cc1OC [AG-1478] | 0.3 | – |
| C[C@H](N)C(=O)N[C@@H](C)C(=O)N[C@@H](Cc1ccccc1)C(=O)CCl [ALA-ALA-PHE-CMK] (H-Ala-Ala-Phe-CH2Cl) | 0.448 | – |
| CC(=O)N[C@@H](CSC/C=C(\C)CC/C=C(\C)CCC=C(C)C)C(=O)O [Acetyl (N) s farnesyl 1 cys] | 0.4 | – |
| Cc1n[nH]c(=O)[nH]c1=O [Azathymine, 6] | 0.480 | – |
| CO/C1=C\C(C)=C\[C@@H](C)[C@@H](O)[C@@H](C)C/C(C)=C/C=C/[C@H](OC)[C@@H]([C@@H](C)[C@@H](O)[C@H](C)[C@@]2(O)C[C@@H](O)[C@H](C)[C@@H](C(C)C)O2)OC1=O [Bafilomycin A1] | 0.333 | – |
| O=C(/C=C/c1ccc(O)c(O)c1)OCCc1ccccc1 [Caffeic acid phenethyl ester] | – | fluorescence within the nematode intestine (GFP-expressing C. albicans) (C. albicans strain MLR62; FIG. 18A): no fluorescence within the intestine |
| O=C(NC(NC(=S)Nc1ccc([N+](=O)[O-])cc1)C(Cl)(Cl)Cl)c1cccc([N+](=O)[O-])c1 (stereo not shown) [Compound E1] | – | MIC [1]: 31.3 µg/mL (≈ 63.5 µM); Amt. Colonization vs untreated (E. faecalis [2]): 1% |
| O=C(CCN1C(=O)/C(=C2/SC(=S)N(CCC(=O)Nc3ccccc3C(=O)O)C2=O)SC1=S)Nc1ccccc1C(=O)O [Compound F1] | – | MIC [1]: > 125 µg/mL; Amt. Colonization vs untreated (E. faecalis [2]): 3% |
| O=c1[nH]c2ccc(/N=C/c3cc(I)cc(I)c3O)cc2[nH]1 [Compound H1] | – | MIC [1]: 15.6 µg/mL (≈ 30.9 µM); Amt. Colonization vs untreated (E. faecalis [2]): 1% |
| O=C1c2ccccc2-c2ncnc3ccc(NC4CCCCC4)c1c23 [Compound J1] | – | MIC [1]: 2 µg/mL (≈ 6.07 µM); Amt. Colonization vs untreated (E. faecalis [2]): 11% |
| COc1ccc(/C=C/C2=CCN(Cc3ccccc3)CC2)cc1 [Compound K1] | – | MIC [1]: > 125 µg/mL; Amt. Colonization vs untreated (E. faecalis [2]): 61% |
| c1ccc(-c2ccc(CN3CCN(c4ccccn4)CC3)cc2)cc1 [Compound L1] | – | MIC [1]: > 125 µg/mL; Amt. Colonization vs untreated (E. faecalis [2]): 101% |

| Compound | Killing (C. albicans strain MLR62) | further results |
| --- | --- | --- |
| CC1(C)C(C=C(Cl)Cl)C1C(=O)NCCCOC(=O)Nc1ccc(Cl)cc1 (stereo not shown) [Compound M1] | – | MIC [1]: > 125 µg/mL; Amt. Colonization vs untreated (E. faecalis [2]): 8% |
| CC(Oc1cccc(Cl)c1)C(=O)N/N=C/c1cc([N+](=O)[O-])ccc1O (stereo not shown) [Compound N1] | – | MIC [1]: 3.9 µg/mL (≈ 10.7 µM); Amt. Colonization vs untreated (E. faecalis [2]): 5% |
| O=[N+]([O-])c1cc(O)ccc1/C=N/Nc1nc(NCc2ccccc2)nc(N2CCOCC2)n1 [Compound O1] | – | MIC [1]: 15.6 µg/mL (≈ 34.6 µM); Amt. Colonization vs untreated (E. faecalis [2]): 8% |
| C=C1[C@@H](C)[C@H]2[C@H](Cc3ccccc3)NC(=O)[C@]23OC(=O)/C=C/[C@H](O)CCC[C@@H](C)C/C=C/[C@H]3[C@@H]1O [Cytochalasin B] | 0.438 | – |
| CC/C=C\C/C=C\C/C=C\C/C=C\C/C=C\CCCC(=O)O [Eicosapentaenoic acid (20:5 n-3)] | 0.448 | – |
| COC(=O)c1c(C)[nH]c(C)c1C(=O)c1ccccc1Cc1ccccc1 [FPL-64176] | 0.429 | – |
| CCCCC/C=C\C[C@@H](O)/C=C/C=C/C=C\[C@@H](O)CCCC(=O)O [Leukotriene B4] | 0.483 | – |
| CCCCC[C@H](O)/C=C/C=C\C=C\C=C\[C@@H](O)[C@@H](O)CCCC(=O)O [Lipoxin A4] | 0.273 | – |
| Clc1ccc2ncnc(NCc3ccc4c(c3)OCO4)c2c1 [MBCQ] | 0.32 | – |
| C[N+]1(CCCCC[N+]2(C)CCCC2)CCCC1.O=C([O-])C(O)C(O)C(=O)O.O=C([O-])C(O)C(O)C(=O)O [Pentolinium bitartrate] | 0.227 | – |
| CC(=O)[C@H]1CC[C@H]2[C@@H]3CC=C4C[C@@H](OS(=O)(=O)[O-])CC[C@]4(C)[C@H]3CC[C@]12C.[Na+] [Pregnenolone sulfate, sodium salt] | 0.438 | – |
| N#Cc1cc2c(OCC(O)CN3CCN(C(c4ccccc4)c4ccccc4)CC3)cccc2[nH]1 (stereo not shown) [SDZ-201106] | 0.432 | – |
| CN(C)[C@@H]1C(O)=C(C(N)=O)C(=O)[C@@]2(O)C(O)=C3C(=O)c4c(O)cccc4[C@@](C)(O)[C@H]3C[C@@H]12 [Tetracycline] | – | survival of E. faecalis infected N2 C. elegans, p (Kaplan-Meier) (E. faecalis [3]; tetracycline 0.08 μg/ml): 0.56; survival of E. faecalis infected N2 C. elegans, p (Kaplan-Meier) (E. faecalis [3]; tetracycline 0.4 μg/ml): < 0.06; survival of E. faecalis infected N2 C. elegans, p (Kaplan-Meier) (E. faecalis [3]; tetracycline 2 μg/ml): < 0.0014; survival of E. faecalis infected N2 C. elegans, p (Kaplan-Meier) (E. faecalis [3]; tetracycline 10 μg/ml): < 0.0001 |
| Docosatrienoic acid (22:3 n-3) | 0.439 | – |
| Eicosatrienoic acid (20:3 n-3) | 0.333 | – |
| Hydrocortisone hemisuccinate | 0.300 | – |
| Hydroxytacrine maleate | 0.467 | – |
| Ikarugamycin | 0.429 | – |
